Data reported in US20250152567A1, “COMPOUNDS FOR USE IN THE TREATMENT OF DYSTROPHINOPATHIES” (SOM INNOVATION BIOTECH, S.A., priority 2022, published 2025).
Counter-ions that a name gives are not always drawn.

Test system: utrophin-A expression
Assay: Utrophin upregulation in mdx^5cv myotubes (qRT-PCR for utrophin-A expression)
Assay type: cell-based
Conditions: Mus musculus, Myotube, 72 h, 0.1 μM, 3 days, RT-PCR, read-out: Utrophin upregulation (average of fold change utrophin vs DMSO ± sem)
Method: Isolation of satellite cell-derived primary myoblasts was performed via cell-surface antibodies and magnetic separation as previously described, and cultured for their expansion (Motohashi et al., J Vis Exp. 2014 Apr. 8; (86): 50846). Briefly, after collagenase (Worthington, CLS-2) treatment, dissociated cells from mdx^5cv mouse hindlimb muscle were incubated with anti-CD31 monoclonal antibody conjugated to phycoerythrin (eBioscience, 12-0311), anti-CD45 monoclonal antibody conjugated to phycoerythrin (eBioscience, 30-F11), anti-Scal monoclonal antibody conjugated to phycoerythrin (eBioscience, Dec-81) and anti-Integrin a7 (MBL International, ABIN487462), followed by anti-PE microbeads (Miltenyi Biotec, 130-048-801), and then performed LD column (Miltenyi Biotec, 130-042-901) separation. Negative cell populations were incubated with anti-Mouse IgG beads (Miltenyi Biotec, 130-048-402), and then MS column (Miltenyi Biotec, 130-042-201) separation was performed to isolate Integrin a7 (+) satellite cells. Satellite cell-derived mdx^5cv myoblasts were maintained in culture on collagen coated plates in myoblast medium containing 20% FBS and 20 ng/ml bFGF (Invitrogen, PHG0263) in HAM's-F10 medium. Cell cultures were maintained in a humidified incubator at 37° C. with 5% CO2 and 5% 02. The mdx^5cv myoblasts were induced to differentiate into multinucleated myotubes after low serum conditions (DMEM supplemented with 5% horse serum).
Halofuginone was obtained from Selleck. Veliflapon and cloricromen HCl were obtained from Sigma. Fabomotizole HCl was obtained from MedChemExpress. Difenpiramide was obtained from Enamine. Amopyroquine and alpelisib were obtained from Carbosynth. Benorilate and xipamide were obtained from Fluorochem. Altizide was obtained from Toronto Research Chemicals. All chemical compounds were dissolved with 100% DMSO to adjust to 10 mM stock solutions.
Every day compounds were added to mdx^5cv myotubes at different concentrations (0.01 to 10 μM) by replacement of the differentiation medium. After 3 days compound exposure, cells were harvested for RNA preparation by TRIzol reagent (15596026, ThermoFisher Scientific). Isolated RNA was used for cDNA synthesis using the Transcriptor First Strand cDNA synthesis kit (04379012001, Roche Molecular Diagnostics) using random primers. Diluted DMSO solution was used as a negative control vehicle. qRT-PCR assay for utrophin-A expression was performed using the following primers: Utro-F1 (Forward) 5′-[…]-3′ (SEQ ID NO: 1) and Utro-R1 (Reverse) 5′-[…]-3′ (SEQ ID NO: 2). 18S rRNA was used as an internal control, with the following primers: 18S-F1 (Forward) 5′-[…]-3′ (SEQ ID NO: 3) and 18S-R1 (Reverse) 5′-[…]-3′ (SEQ ID NO: 4). qPCR was performed using GoTaq qPCR Master Mix (A6001, Promega). All primers were synthesized as custom DNA oligos from Integrated DNA technologies (IDT). Analysis was done using the ACt method. Statistical analysis was performed with at least three independent experiments with between 2 and 4 replicates in each experiment.
The chemical compounds were tested in mdx^5cv myotubes at different concentrations for 3 days. Halofuginone was used as a positive control for the utrophin up-regulation.

`CCOC(=O)COc1ccc2c(C)c(CCN(CC)CC)c(=O)oc2c1Cl` [Cloricromen hydrochloride, Cloricromen] and `Cc1cccc(C)c1NC(=O)c1cc(S(N)(=O)=O)c(Cl)cc1O` [Xipamide] are within error of each other in fold induction at 0.1 µM: 1.06 ± 0.19 for the first, 1.25 ± 0.18 for the second.

`Cc1nc(NC(=O)N2CCC[C@H]2C(N)=O)sc1-c1ccnc(C(C)(C)C(F)(F)F)c1` [Alpelisib] and `O=C(CC1NCCCC1O)Cn1cnc2cc(Br)c(Cl)cc2c1=O` (stereo not drawn) [Halofuginone] are within error of each other in fold induction at 0.1 µM: 1.08 ± 0.09 for the first, 1.44 ± 0.37 for the second.

`O=C(Cc1ccc(-c2ccccc2)cc1)Nc1ccccn1` [Difenpiramide] and `O=C(O)[C@@H](c1ccc(OCc2ccc3ccccc3n2)cc1)C1CCCC1` [Veliflapon] are within error of each other in fold induction at 0.1 µM: 1.24 ± 0.13 for the first, 1.43 ± 0.24 for the second.

`C=CCSCC1Nc2cc(Cl)c(S(N)(=O)=O)cc2S(=O)(=O)N1` (stereo not drawn) [Altizide] and `Oc1ccc(Nc2ccnc3cc(Cl)ccc23)cc1CN1CCCC1` [Amopyroquine] are within error of each other in fold induction at 0.1 µM: 1.09 ± 0.07 for the first, 1.23 ± 0.11 for the second.

`CC(=O)Nc1ccc(OC(=O)c2ccccc2OC(C)=O)cc1` [Benorilate] and `CCOc1ccc2[nH]c(SCCN3CCOCC3)nc2c1` [Fabomotizole hydrochloride, Fabomotizole] are within error of each other in fold induction at 0.1 µM: 1.16 ± 0.12 for the first, 1.34 ± 0.07 for the second.

Same assay, conditions: Mus musculus, Myotube, 72 h, 1 μM, 3 days, RT-PCR, read-out: Utrophin upregulation (average of fold change utrophin vs DMSO ± sem)

`CCOC(=O)COc1ccc2c(C)c(CCN(CC)CC)c(=O)oc2c1Cl` [Cloricromen hydrochloride, Cloricromen] and `Cc1cccc(C)c1NC(=O)c1cc(S(N)(=O)=O)c(Cl)cc1O` [Xipamide] are within error of each other in fold induction at 1 µM: 1.07 ± 0.22 for the first, 1.05 ± 0.17 for the second.

`Cc1nc(NC(=O)N2CCC[C@H]2C(N)=O)sc1-c1ccnc(C(C)(C)C(F)(F)F)c1` [Alpelisib] and `O=C(CC1NCCCC1O)Cn1cnc2cc(Br)c(Cl)cc2c1=O` (stereo not drawn) [Halofuginone] are within error of each other in fold induction at 1 µM: 1.45 ± 0.11 for the first, 1.24 ± 0.1 for the second.

Going from `O=C(Cc1ccc(-c2ccccc2)cc1)Nc1ccccn1` [Difenpiramide] to `O=C(O)[C@@H](c1ccc(OCc2ccc3ccccc3n2)cc1)C1CCCC1` [Veliflapon], the fold induction at 1 µM rises from 1.1 ± 0.21 to 1.35 ± 0.02.

`C=CCSCC1Nc2cc(Cl)c(S(N)(=O)=O)cc2S(=O)(=O)N1` (stereo not drawn) [Altizide] and `Oc1ccc(Nc2ccnc3cc(Cl)ccc23)cc1CN1CCCC1` [Amopyroquine] are within error of each other in fold induction at 1 µM: 1.33 ± 0.09 for the first, 1.1 ± 0.14 for the second.

`CC(=O)Nc1ccc(OC(=O)c2ccccc2OC(C)=O)cc1` [Benorilate] and `CCOc1ccc2[nH]c(SCCN3CCOCC3)nc2c1` [Fabomotizole hydrochloride, Fabomotizole] are the same in fold induction at 1 µM: 1.04 ± 0.16 for the first, 1.04 ± 0.1 for the second.

Same assay, conditions: Mus musculus, Myotube, 72 h, 10 μM, 3 days, RT-PCR, read-out: Utrophin upregulation (average of fold change utrophin vs DMSO ± sem)

`CCOC(=O)COc1ccc2c(C)c(CCN(CC)CC)c(=O)oc2c1Cl` [Cloricromen hydrochloride, Cloricromen] and `Cc1cccc(C)c1NC(=O)c1cc(S(N)(=O)=O)c(Cl)cc1O` [Xipamide] are within error of each other in fold induction at 10 µM: 1.34 ± 0.13 for the first, 1.18 ± 0.1 for the second.

`Cc1nc(NC(=O)N2CCC[C@H]2C(N)=O)sc1-c1ccnc(C(C)(C)C(F)(F)F)c1` [Alpelisib] and `O=C(CC1NCCCC1O)Cn1cnc2cc(Br)c(Cl)cc2c1=O` (stereo not drawn) [Halofuginone] are within error of each other in fold induction at 10 µM: 1.4 ± 0.13 for the first, 1.3 ± 0.04 for the second.

`O=C(Cc1ccc(-c2ccccc2)cc1)Nc1ccccn1` [Difenpiramide] and `O=C(O)[C@@H](c1ccc(OCc2ccc3ccccc3n2)cc1)C1CCCC1` [Veliflapon] are within error of each other in fold induction at 10 µM: 1.23 ± 0.21 for the first, 1.05 ± 0.15 for the second.

`C=CCSCC1Nc2cc(Cl)c(S(N)(=O)=O)cc2S(=O)(=O)N1` (stereo not drawn) [Altizide] and `Oc1ccc(Nc2ccnc3cc(Cl)ccc23)cc1CN1CCCC1` [Amopyroquine] are within error of each other in fold induction at 10 µM: 1.33 ± 0.09 for the first, 1.23 ± 0.37 for the second.

`CC(=O)Nc1ccc(OC(=O)c2ccccc2OC(C)=O)cc1` [Benorilate] and `CCOc1ccc2[nH]c(SCCN3CCOCC3)nc2c1` [Fabomotizole hydrochloride, Fabomotizole] are within error of each other in fold induction at 10 µM: 1.58 ± 0.29 for the first, 1.34 ± 0.19 for the second.

Test system: DMD patient-derived 3D skeletal muscle tissues
Assay: Force of muscle contraction in response to electrical pulse stimulation in human 3D skeletal muscle tissues
Assay type: cell-based
Conditions: 10 μM, 2 days (FIG. 3)
Method: Fabrication of Human 3D Skeletal Muscle Tissues and Treatment Human 3D skeletal muscle tissues were fabricated using polydimethylsiloxane (PDMS; Sylgard 184 silicone elastomer kit, Dow Corning) casting molds developed and fabricated as described in Fernández-Costa et al. 2022. Briefly, the casting molds design consists of a square-shaped pool, where the cells/hydrogel solution is seeded, and two vertical, flexible PDMS pillars. PDMS casting molds were prepared for muscle cell culture by first cleaning them by sonication on water with soap, 2-propanol, and Mili-Q water and sterilized with UV light for 15 min. It was followed by 1 h treatment with 1% Plurionic® F-127 (Sigma-Aldrich) solution in cold PBS (100 μl/well) at 4° C. Human 3D skeletal muscle tissues were generated using Immortalized human muscle satellite cells (iHuMSCs) from a DMD patient (DMD 2, clone G82) (Massenet et al. 2020). iHuMSCs were cultured in growth medium (skeletal muscle basal medium (PromoCell GmbH), skeletal muscle supplemental mix (PromoCell GmbH), 10% Fetal Bovine Serum (FBS) (Gibco™), 100 U/mL penicillin and 100 μg/ml streptomycin (Gibco™)). iHuMSCs were released from culture flasks via mild trypsinization. Cells were encapsulated at 2.5×10^7 cells/ml in a cell/hydrogel mixture of 30% v/v Corning® Matrigel® Growth Factor Reduced (GFR) Basement Membrane Matrix (Corning®), 2 units of thrombin from human plasma (Sigma-Aldrich) and 4 mg/mL of fibrinogen from human plasma (50% v/v) (Sigma-Aldrich). 35 μl was pipetted within each PDMS casting mold using cool tips to avoid premature polymerization.
The cell/hydrogel mixture was polymerized for 30 min at 37° C. followed by incubation in growth medium containing 1 mg/mL of 6-aminocaproic acid (ACA) (Sigma-Aldrich). ACA works as an antifibrinolytic, which avoids fibrin depolymerization. They were kept in growth media for two days and then switched to differentiation medium (Dulbecco's Modified Eagle Medium, high glucose, GlutaMAX™ Supplement (Gibco™), containing 1% KnockOut™ Serum replacement (Gibco™), 1% Insulin-Transferrin-Selenium-Ethanolamine (Gibco™) and 1% Penicillin-Streptomycin-Glutamine (Gibco™)) containing 1 mg/mL of ACA for seven days. Half of the volume of differentiation medium was replaced every two days. After five days of differentiation, the medium was replaced by differentiation medium with the drugs at 10 μM and 0.01% DMSO final concentration. The treatment was kept for 48 hours.
Human 3D skeletal muscle tissues were electrically stimulated after seven days of differentiation to induce muscle contraction. A custom-made device consisted of a 12-well plate with two graphite electrodes per well located on the lid was used to perform the EPS. PDMS casting molds were placed on a 12-well plate with fresh differentiation medium. The plate was placed on a Zeiss Axio Observer Z1/7 outfitted with the XL S1 cell incubator at 37° C. and 5% CO2. The device was connected to a pulse generator (Multifunction Generator WF1974, NF Corporation), and tissues were stimulated with electrical square-wave pulses of 1 V/mm, 1 ms of pulse width, and frequencies varying from 1 to 50 Hz. The contractibility in response of EPS of 1 Hz of frequency was evaluated to study twitch contraction dynamics. On the other hand, 50 Hz of frequency was applied to induce tetanic contractions.
Videos of the movement of the pillar of the casting molds in response to the muscle contractions were taken with a ZEISS Axio Observer Z1/7 microscope. Cross-sectional area and location of the tissues on the axis of the pillars were also recorded during the assay. Videos were analyzed using a custom-made Python script and the specific force performed from the tissues was calculated applying […] together with the calculated displacement of the pillar as done in Mestre et al. 2018. Tetanic index was calculated as the ratio between the maximal tetanic specific force divided by the maximal twitch specific force. […]

For `O=C(Cc1ccc(-c2ccccc2)cc1)Nc1ccccn1` [Difenpiramide], the “tetanic index (maximal tetanic specific force / maximal twitch specific force)” value was “significant increase”.
In the case of `O=C(O)[C@@H](c1ccc(OCc2ccc3ccccc3n2)cc1)C1CCCC1` [Veliflapon], the “tetanic index (maximal tetanic specific force / maximal twitch specific force)” value is reported as “significant increase”.

Same assay, conditions: 10 μM, 2 days, 1 Hz EPS, compared with DMSO treated cells (FIG. 1)

For `O=C(Cc1ccc(-c2ccccc2)cc1)Nc1ccccn1` [Difenpiramide], the “maximal twitch contractile force in response to electrical stimulation” value was “increase”.
`O=C(O)[C@@H](c1ccc(OCc2ccc3ccccc3n2)cc1)C1CCCC1` [Veliflapon] was tested, and the “maximal twitch contractile force in response to electrical stimulation” value was “increase”.

Same assay, conditions: 10 μM, 2 days, 50 Hz EPS, compared with DMSO treated cells (FIG. 2)

In the case of `O=C(Cc1ccc(-c2ccccc2)cc1)Nc1ccccn1` [Difenpiramide], the “tetanic contractile force in response to electrical stimulation” value is reported as “increase”.
For `O=C(O)[C@@H](c1ccc(OCc2ccc3ccccc3n2)cc1)C1CCCC1` [Veliflapon], the “tetanic contractile force in response to electrical stimulation” value was “increase”.
